From US8389524B2, “Tricyclic nitrogen containing compounds as antibacterial agents” (Glaxo Group Limited, priority 2007, dated 2013)
Counter-ions that a name gives are not always drawn.

Experiments:
[1] = Antimicrobial Activity Assay: whole-cell antimicrobial activity by broth microdilution (CLSI M7-A7), MIC; format: cell-based, Gram-positive and Gram-negative organisms; details: against a strain of at least one of the organisms listed; tested in at least one exemplified salt or free base form
Description: Whole-cell antimicrobial activity was determined by broth microdilution using the Clinical and Laboratory Standards Institute (CLSI) recommended procedure, Document M7-A7, “Methods for Dilution Susceptibility Tests for Bacteria that Grow Aerobically”. The compounds were tested in serial two-fold dilutions ranging from 0.016 to 16 mcg/ml.
The minimum inhibitory concentration (MIC) was determined as the lowest concentration of compound that inhibited visible growth. A mirror reader was used to assist in determining the MIC endpoint.
Compounds were evaluated against Gram-positive organisms, selected from Staphylococcus aureus, Streptococcus pneumoniae, Streptococcus pyogenes, Enterococcus faecalis and Enterococcus faecium.
In addition, compounds were evaluated against Gram-negative organisms selected from Haemophilus influenzae, Moraxella catarrhalis, Escherichia coli, Pseudomonas aeruginosa, Proteus mirabilis, Enterobacter cloacae, Enterobacter aerogenes, Klebsiella pneumoniae and Stenotrophomonas maltophilia.

[2] = test system: Mycobacterium tuberculosis H37Rv; test: Mycobacterium tuberculosis H37Rv Inhibition Assay (resazurin, MIC); format: cell-based; details: ATCC 25618 / H37Rv, 144 h, read-out: MIC value, H37Rv strain (ATCC25618), Middlebrook 7H9+ADC, six days at 37° C., resazurin fluorescence after 48 hours

Row | SMILES | MIC [1] [µg/mL] | MIC [2] [µg/mL]
1 | O=c1ccc2ccc(=O)n3c2n1C[C@H]3CN1CCC(NCc2cc3c(cn2)COC3)CC1 [Example 9, (1R)-1-({4-[(1,3-Dihydrofuro[3,4-c]pyridin-6-ylmethyl)amino]-1-piperidinyl}methyl)-1,2-dihydro-4H,1H-imidazo[1,2,3-ij]-1,8-naphthyridine-4,9-dione hydrochloride] | ≤ 4 | –
2 | O=c1ccc2ccc(=O)n3c2n1C[C@H]3CN1CCC(NCc2nc3cccc(F)c3[nH]2)CC1 [Example 46, (1R)-1-[(4-{[(4-Fluoro-1H-benzimidazol-2-yl)methyl]amino}-1-piperidinyl)methyl]-1,2-dihydro-4H,9H-imidazo[1,2,3-ij]-1,8-naphthyridine-4,9-dione dihydrochloride] | – | < 2
3 | O=c1ccc2ccc(=O)n3c2n1CC3CN1CCC(NCc2cc3c(cn2)OCS3)CC1 (stereo not shown) [Example 2, 1-({4-[([1,3]Oxathiolo[5,4-c]pyridin-6-ylmethyl)amino]-1-piperidinyl}methyl)-1,2-dihydro-4H,9H-imidazo[1,2,3-ij]-1,8-naphthyridine-4,9-dione hydrochloride] | – | < 2
4 | O=c1ccc2ncc(=O)n3c2n1C[C@H]3CN1CCC(NCc2cc3c(cn2)OCCS3)CC1 [Example 19A, (2R)-2-({4-[(2,3-Dihydro[1,4]oxathiino[2,3-c]pyridin-7-ylmethyl)amino]-1-piperidinyl}methyl)-1,2-dihydro-3H,8H-2a,5,8a-triazaacenaphthylene-3,8-dione hydrochloride] | – | < 2
